Source: article PMC4490784, “Compensatory induction of MYC expression by sustained CDK9 inhibition via a BRD4-dependent mechanism” (eLife, 2015)

System: MYC protein in HeLa cells
Experiment: Immunoblotting of MYC protein in HeLa cell lysates
Assay type: cell-based, human
Conditions: for effect on MYC induction by i-CDK9: pretreatment before i-CDK9
Method: Figure 3. Induction of MYC mRNA production in response to sustained inhibition of CDK9 by i-CDK9 and the requirement of MYC's natural genomic structure in this process. (A) The indicated tumor cell lines were treated with i-CDK9 (0.5 μM) for 2–16 hr and the MYC mRNA levels, which were divided by those in the DMSO-treated cells and averaged from three independent replicates of DNA microarray analysis, were shown as log2 values. (B) HeLa cells were treated with the indicated concentrations of i-CDK9 for 8 hr and the various proteins in the total cell lysates were detected by immunoblotting as indicated. Quantifications of the levels of MYC protein and Ser2-phosphoryalted Pol II (pSer2) in the lysates were shown above and below the immunoblots, respectively. […] The levels of the indicated proteins were examined by immunoblotting. (G) A HeLa-based cell line containing the stably transfected, doxycycline (Dox)-inducible MYC-F-expressing plasmid driven by the CMV promoter was pretreated with (+) or without (−) Dox prior to incubation with i-CDK9 or DMSO. MYC and MYC-F expressed from the endogenous MYC locus and the transfected plasmid, respectively, were detected by immunoblotting. DOI: http://dx.doi.org/10.7554/eLife.06535.007 Figure 3—figure supplement 1. Biphasic response of MYC mRNA production throughout the course of CDK9 inhibition by i-CDK9. DOI: http://dx.doi.org/10.7554/eLife.06535.008 [drawing 2] Figure 3—Figure supplement 2. […] DOI: http://dx.doi.org/10.7554/eLife.06535.009 [drawing 3] TEXT PRINTED IN THE PICTURE: (B) i-CDK9: Fold increase in MYC protein: 1.0 (i-CDK9 (μM): 0); Fold increase in MYC protein: 1.2 (i-CDK9 (μM): 0.01); Fold increase in MYC protein: 1.7 (i-CDK9 (μM): 0.03); Fold increase in MYC protein: 3.6 (i-CDK9 (μM): 0.1); Fold increase in MYC protein: 5.2 (i-CDK9 (μM): 0.3); Fold increase in MYC protein: 5.5 (i-CDK9 (μM): 1.0) | (C) i-CDK9: Fold increase in MYC protein: 1.0 (0.3 μM i-CDK9 (h): 0); Fold increase in MYC protein: 0.9 (0.3 μM i-CDK9 (h): 1); Fold increase in MYC protein: 1.1 (0.3 μM i-CDK9 (h): 2); Fold increase in MYC protein: 1.2 (0.3 μM i-CDK9 (h): 4); Fold increase in MYC protein: 3.3 (0.3 μM i-CDK9 (h): 8)
First, the induction of MYC protein level was confirmed in HeLa cells treated with i-CDK9. […] It took 1.0 µM i-CDK9 to cause up to 85% reduction in pSer2. In a separate time-course analysis, the 8-hr incubation with i-CDK9 (0.3 μM) induced the MYC level by 3.3-fold, whereas the same condition reduced the pSer2 level by only 40% (Figure 3C). Thus, MYC expression was highly responsive to i-CDK9 treatment and occurred at a time point earlier and drug concentration lower than those required to achieve a significant suppression of Ser2 phosphorylation on the Pol II CTD.

Structure (SMILES): Cc1sc2c(c1C)C(c1ccc(Cl)cc1)=N[C@@H](CC(=O)OC(C)(C)C)c1nnc(C)n1-2 [JQ1, reference compound]
- effect on MYC induction by i-CDK9: completely abolished

Structure (SMILES): Cc1sc2c(c1C)C(c1ccc(Cl)cc1)=N[C@H](CC(=O)OC(C)(C)C)c1nnc(C)n1-2 [ctl., reference compound]
- effect on MYC induction by i-CDK9: ineffective

Structure (SMILES): CN1CC[C@H](c2c(O)cc(O)c3c(=O)cc(-c4ccccc4Cl)oc23)[C@H](O)C1 [Flavopiridol, flavopiridol, reference compound]
- MYC protein level (e.g. 4 hr, e.g. 0.1 μM): significantly elevated
